In article PMC9917443 (eLife, 2023):
Entries after “also recorded” stand apart in the source; their conditions may differ.

How the values were obtained:
CA1 pyramidal cells = settings: anesthetized mice, two-photon Ca^2+ imaging; ref Rice et al., 2019; cited from earlier work
Description: GBRs are composed of a GB1a or GB1b subunit with a GB2 subunit, which generates heterodimeric GB1a/2 and GB1b/2 receptors ([Pin and Bettler, 2016]). GB1a differs from GB1b by the presence of two N-terminal sushi domains (SD1/2). GB1a/2 and GB1b/2 receptors predominantly localize to pre- and postsynaptic sites, respectively ([Vigot et al., 2006]). APP and sAPP bind to SD1 of GB1a ([Schwenk et al., 2016]; [Dinamarca et al., 2019]; [Rice et al., 2019]).

[1] = tested on: GBR-activated K^+ currents in cultured hippocampal neurons; experiment: K^+ currents in cultured hippocampal neurons (patch-clamp); format: cell-based, mouse
Method: APP17 signaling through native GBRs may depend on protein-protein interactions that are not preserved in the membrane preparations used for the [^35S]GTPγS binding assay. Therefore, we tested whether APP17 influences GBR-mediated Gβγ signaling to K^+ channels in cultured hippocampal neurons using patch-clamp electrophysiology, which preserves the native environment of receptors ([Schuler et al., 2001]; [Vigot et al., 2006]). […] . Neuronal cultures and HEK293T cells were prepared as described ([Dinamarca et al., 2019]). Coverslips with hippocampal neurons (DIV 12–15) or HEK293T cells were transferred to a chamber containing a low-K^+ bath solution (in mM): 145 NaCl, 4 KCl, 5 HEPES, 5.5 D-glucose, 1 MgCl2, and 1.8 CaCl2 (pH 7.4 adjusted with NaOH). Recordings were performed at room temperature using borosilicate pipettes of 3–5 MΩ resistance tips, filled with K-gluconate-based pipette solution (in mM): 150 K-gluconate, 1.1 EGTA, 10 HEPES, 10 Tris-phosphocreatine, 0.3 NaGTP, and 4 MgATP (pH 7.2 adjusted with KOH). Upon achieving whole-cell access, cells were held in voltage-clamp mode at −70 mV (with no correction for liquid junction potential) and baclofen-induced K^+ currents were induced in a high-K^+ bath solution (in mM): 120 NaCl, 25 KCl, 5 HEPES, 5.5 D-glucose, 1 MgCl2, and 1.8 CaCl2 (pH 7.4 adjusted with NaOH). […] Schaffer collaterals were stimulated at 0.1 Hz with brief current pulses via bipolar Pt/Ir wires. Evoked EPSCs were recorded at –60 mV with a Cs^+-based intracellular solution. Baclofen and peptides were bath applied in standard ACSF at room temperature. We recorded mEPSCs in primary neuronal cultures established from embryonic (E15–17) murine hippocampus at DIV13–16 in the presence of 0.5 μM TTX at room temperature ([Dinamarca et al., 2019]). APP17 (250 nM) and (R)-baclofen (30 μM) were applied via superfusion. Template matching with pClamp 10 software (Molecular Devices) was used to detect individual mEPSCs.

GB1a/2 receptors [2] = target: T1, GB1a/2 receptors (Homo sapiens, UniProt O75899+Q9UBS5); experiment: Ca^2+ mobilization assay (Calcium 6) in HEK293T cells expressing GB1a/2; format: cell-based; design: Flag (N); expressed in transfected cells; host or cells: HEK293T cells stably expressing chimeric Gαqi; settings: 1 or 10 μM
GB1a/2 receptors [3] = target: T1, GB1a/2 receptors; experiment: PKA luminescence assay (R-RLuc-N / C-RLuc-C) of Gαi signaling in HEK293T cells
[4] = tested on: eEPSCs of CA1 pyramidal neurons; experiment: eEPSC amplitudes in CA1 pyramidal neurons of acute hippocampal slices; design: species or system mouse; settings: APP17 250 nM or baclofen 20 µM, Cs^+-based intracellular solution
Method: (§1) GB1a/2 receptors are abundant at axon terminals where they inhibit neurotransmitter release ([Vigot et al., 2006]). […] A GBR antagonist blocked the effect of APP17 on the mEPSC frequency, supporting a GBR-dependent mechanism. […] We additionally studied whether APP17 at 250 nM influences eEPSC amplitudes in acute hippocampal slices. Postsynaptic GBR-activated K^+ currents were blocked with a Cs^+-based intracellular solution, which allowed to specifically monitor the activity of presynaptic GBRs.
(§2) Neuronal cultures and HEK293T cells were prepared as described ([Dinamarca et al., 2019]). Coverslips with hippocampal neurons (DIV 12–15) or HEK293T cells were transferred to a chamber containing a low-K^+ bath solution (in mM): 145 NaCl, 4 KCl, 5 HEPES, 5.5 D-glucose, 1 MgCl2, and 1.8 CaCl2 (pH 7.4 adjusted with NaOH). Recordings were performed at room temperature using borosilicate pipettes of 3–5 MΩ resistance tips, filled with K-gluconate-based pipette solution (in mM): 150 K-gluconate, 1.1 EGTA, 10 HEPES, 10 Tris-phosphocreatine, 0.3 NaGTP, and 4 MgATP (pH 7.2 adjusted with KOH). […] Evoked EPSCs were recorded at –60 mV with a Cs^+-based intracellular solution. […] We recorded mEPSCs in primary neuronal cultures established from embryonic (E15–17) murine hippocampus at DIV13–16 in the presence of 0.5 μM TTX at room temperature ([Dinamarca et al., 2019]). […]

[5] = tested on: mEPSCs of cultured hippocampal neurons; experiment: mEPSC frequency in cultured hippocampal neurons; format: cell-based, mouse; settings: APP17 250 nM, 0.5 μM TTX, DIV13–16
Method: as §1, §2

T1 sequence (Q9UBS5 15-961 limits assumed): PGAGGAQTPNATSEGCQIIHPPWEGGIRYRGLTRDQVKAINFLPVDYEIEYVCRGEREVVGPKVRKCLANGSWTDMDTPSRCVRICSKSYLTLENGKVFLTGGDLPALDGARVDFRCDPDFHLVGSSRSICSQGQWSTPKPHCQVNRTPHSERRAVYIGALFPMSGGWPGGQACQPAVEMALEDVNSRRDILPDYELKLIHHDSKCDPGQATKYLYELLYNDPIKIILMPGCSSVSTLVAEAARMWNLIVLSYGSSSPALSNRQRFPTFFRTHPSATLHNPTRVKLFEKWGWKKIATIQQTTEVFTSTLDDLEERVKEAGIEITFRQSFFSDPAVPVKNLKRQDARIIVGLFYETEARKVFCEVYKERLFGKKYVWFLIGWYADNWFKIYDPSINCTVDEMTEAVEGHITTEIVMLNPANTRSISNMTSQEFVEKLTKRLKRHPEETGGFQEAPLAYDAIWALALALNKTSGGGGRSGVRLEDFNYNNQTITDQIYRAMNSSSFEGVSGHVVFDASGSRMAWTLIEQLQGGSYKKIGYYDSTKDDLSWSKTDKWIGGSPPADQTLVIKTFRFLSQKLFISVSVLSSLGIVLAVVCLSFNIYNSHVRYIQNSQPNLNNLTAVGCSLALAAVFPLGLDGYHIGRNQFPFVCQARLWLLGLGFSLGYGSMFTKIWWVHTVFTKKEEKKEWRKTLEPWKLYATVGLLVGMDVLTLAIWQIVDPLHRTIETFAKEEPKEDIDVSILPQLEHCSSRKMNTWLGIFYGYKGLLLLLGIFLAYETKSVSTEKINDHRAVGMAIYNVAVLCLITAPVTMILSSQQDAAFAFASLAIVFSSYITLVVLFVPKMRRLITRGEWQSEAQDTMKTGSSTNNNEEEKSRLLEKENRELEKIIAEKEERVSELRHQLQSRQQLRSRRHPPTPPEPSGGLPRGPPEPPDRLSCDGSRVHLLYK
T1 sequence (O75899 42-941 partner): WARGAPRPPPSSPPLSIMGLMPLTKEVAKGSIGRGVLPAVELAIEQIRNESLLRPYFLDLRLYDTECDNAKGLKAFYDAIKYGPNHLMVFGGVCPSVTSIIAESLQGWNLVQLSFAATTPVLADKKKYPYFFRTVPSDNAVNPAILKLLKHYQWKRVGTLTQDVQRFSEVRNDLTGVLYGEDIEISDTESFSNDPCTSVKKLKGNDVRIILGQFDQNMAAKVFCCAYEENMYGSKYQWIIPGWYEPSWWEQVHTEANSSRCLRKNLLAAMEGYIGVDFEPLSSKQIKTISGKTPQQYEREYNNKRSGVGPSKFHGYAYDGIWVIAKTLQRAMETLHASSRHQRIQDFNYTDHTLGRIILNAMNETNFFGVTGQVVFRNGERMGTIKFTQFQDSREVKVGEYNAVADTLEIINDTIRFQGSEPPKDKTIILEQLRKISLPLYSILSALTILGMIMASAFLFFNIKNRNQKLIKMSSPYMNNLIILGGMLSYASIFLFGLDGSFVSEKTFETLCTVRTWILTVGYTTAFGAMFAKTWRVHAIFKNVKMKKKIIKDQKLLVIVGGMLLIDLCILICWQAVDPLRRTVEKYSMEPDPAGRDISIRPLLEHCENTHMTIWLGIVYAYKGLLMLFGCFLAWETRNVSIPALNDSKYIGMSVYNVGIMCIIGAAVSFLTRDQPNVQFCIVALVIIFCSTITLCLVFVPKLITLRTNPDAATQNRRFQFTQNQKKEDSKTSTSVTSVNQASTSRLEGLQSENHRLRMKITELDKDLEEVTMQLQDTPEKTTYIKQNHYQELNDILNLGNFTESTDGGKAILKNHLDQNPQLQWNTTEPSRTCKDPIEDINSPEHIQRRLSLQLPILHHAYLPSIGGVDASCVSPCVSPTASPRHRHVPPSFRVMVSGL

Substance: Ac-DDSDVWWGGADTDYADG-NH2 [APP17]
- neuronal activity (in words) (CA1 pyramidal cells): suppresses neuronal activity of CA1 pyramidal cells in anesthetized mice; also recorded: inhibited neuronal activity in the hippocampus of anesthetized mice
- K+ current ([1]; 5 µM APP17, column graph (left), single values): -1.055
- baclofen-induced K^+ currents in presence of peptide (in words) ([1]; 5 µM peptide + 5 µM baclofen): elicited currents of similar amplitudes as baclofen alone
- K^+ currents evoked by compound alone (in words) ([1]; 5 µM, -70 mV): did not elicit any currents
- intracellular Ca^2+ mobilization (in words) (GB1a/2 receptors [2]): did not induce significant Ca^2+ mobilization
- GABA-mediated PKA inactivation in presence of peptide (in words) (GB1a/2 receptors [3]; 10 μM peptide): GABA-mediated PKA inactivation was comparable
- effect of peptide alone on luminescence/receptor activity (in words) (GB1a/2 receptors [3]; 10 μM peptide): no agonistic, inverse agonistic, or antagonistic properties
- receptor activity with APP695 in cis (in words) (GB1a/2 receptors [3]; peptide, APP695 in cis): did not significantly alter GB1/2 receptor activity
- eEPSC amplitude (in words) [4]: not APP17 was able to reduce the amplitudes of eEPSCs
- mEPSC frequency (in words) [5]: unable to detect a significant effect of APP17 on the mEPSC frequency
